Among the data in US8629102B2, “3-hydroxyisothiazole 1-oxide derivatives” (Mochida Pharmaceutical Co., Ltd., priority 2011, dated 2014) are EC50 values, retold here.

Some results are limits rather than exact numbers.

The target of this assay is T1, GPR40 of human origin (Homo sapiens, UniProt O14842).
T1 construct: expressed in transfected cells
T1 sequence (O14842 whole entry): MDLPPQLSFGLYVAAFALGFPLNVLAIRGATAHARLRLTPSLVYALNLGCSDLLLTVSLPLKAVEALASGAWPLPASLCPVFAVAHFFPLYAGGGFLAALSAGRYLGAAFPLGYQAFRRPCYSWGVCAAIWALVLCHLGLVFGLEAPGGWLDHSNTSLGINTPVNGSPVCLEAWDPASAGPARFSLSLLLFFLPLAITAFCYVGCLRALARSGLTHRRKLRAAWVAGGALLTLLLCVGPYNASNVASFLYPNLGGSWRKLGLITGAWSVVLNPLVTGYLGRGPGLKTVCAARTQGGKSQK
The assay can be described thus: Agonist action on GPR40 of human origin (intracellular Ca2+ change). The class given is cell-based. The settings on record: CHO cell strain stably expressing GPR40 of human origin; change in Ca2+ concentration, fluorescent calcium indicator. The method in brief: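 CHO cells stably expressing human GPR40, cultured overnight, then loaded 1 h with Calcium 4 dye plus probenecid in HEPES-buffered HBSS. Compound added in 20 mM HEPES-HBSS; intracellular Ca2+ change read by fluorescence, EC50 from dose-response of fluorescence change.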
Take `[O-][s+]1nc(O)cc1-c1ccc(O[C@@H]2CCc3c(-c4ccc(OCC5CC5)nc4)cccc32)cc1` (stereo partly drawn) [Example 78, 5-(4-(((R)-4-(6-(cyclopropylmethoxy)pyridin-3-yl)-2,3-dihydro-1H-inden-1-yl)oxy)phenyl)-3-hydroxyisothiazole 1-oxide]: the EC50 is below 300 nM.
For `Cc1ccc(-c2cccc3c2CC[C@H]3Oc2ccc(-c3cc(O)n[s+]3[O-])cc2)cc1F` (stereo partly drawn) [Example 13, 5-(4-(((R)-4-(3-fluoro-4-methylphenyl)-2,3-dihydro-1H-inden-1-yl)oxy)phenyl)-3-hydroxyisothiazole 1-oxide], the 50% effective concentration (EC50) was below 300 nM.
For `[O-][s+]1nc(O)cc1-c1ccc(O[C@@H]2CCc3c(-c4cccc5ccccc45)cccc32)cc1` (single isomer, unassigned) [Example 35], the EC50 was below 300 nM.
Turning to `Cc1cc(-c2cccc3c2CC[C@H]3Oc2ccc(-c3cc(O)n[s+]3[O-])cc2)ccc1F` (stereo partly drawn) [Example 38, 5-(4-(((R)-4-(4-fluoro-3-methylphenyl)-2,3-dihydro-1H-inden-1-yl)oxy)phenyl)-3-hydroxyisothiazole 1-oxide], the 50% effective concentration (EC50) is below 300 nM.
On to `[O-][s+]1nc(O)cc1-c1ccc(OCC2=CC3(CCCC3)CCC2)cc1` (stereo not drawn) [Example 122, 3-hydroxy-5-(4-(spiro[4.5]dec-6-en-7-ylmethoxy)phenyl)isothiazole 1-oxide], for which the EC50 was below 300 nM.
With `CCOc1ccc(F)cc1-c1cccc2c1CC[C@H]2Oc1ccc(-c2cc(O)n[s+]2[O-])cc1` (stereo partly drawn) [Example 4, 5-(4-(((1R)-4-(2-ethoxy-5-fluorophenyl)-2,3-dihydro-1H-inden-1-yl)oxy)phenyl)-3-hydroxyisothiazole 1-oxide], the EC50 is below 300 nM.
In the case of `CCOc1ncccc1-c1cccc2c1CC[C@H]2Oc1ccc(-c2cc(O)n[s+]2[O-])cc1` (stereo partly drawn) [Example 19, 5-(4-(((R)-4-(2-ethoxypyridin-3-yl)-2,3-dihydro-1H-inden-1-yl)oxy)phenyl)-3-hydroxyisothiazole 1-oxide], the EC50 is below 300 nM.
To `N#Cc1ccc(Oc2cccc3c2CC[C@H]3Oc2ccc(-c3cc(O)n[s+]3[O-])cc2)cc1` (single isomer, unassigned) [Example 83] belongs below 300 nM; to `CC(C)Oc1ccc(-c2cccc3c2CC[C@H]3Oc2ccc(-c3cc(O)n[s+]3[O-])cc2)cc1` (stereo partly drawn) [Example 31, 5-(4-(((R)-4-(4-isopropoxyphenyl)-2,3-dihydro-1H-inden-1-yl)oxy)phenyl)-3-hydroxyisothiazole 1-oxide], 300 to 3000 nM; to `[O-][s+]1nc(O)cc1-c1ccc(O[C@@H]2CCc3c(-c4cccc5c4oc4ccccc45)cccc32)cc1` (single isomer, unassigned) [Example 80], below 300 nM.
Regarding `[O-][s+]1nc(O)cc1-c1ccc(O[C@@H]2CCc3c(Oc4ccc(CCO)cc4)cccc32)cc1` (stereo partly drawn) [Example 88, 3-hydroxy-5-(4-(((R)-4-(4-(2-hydroxyethyl)phenoxy)-2,3-dihydro-1H-inden-1-yl)oxy)phenyl)isothiazole 1-oxide], the EC50 is below 300 nM.
On to `COc1ccc(Oc2cccc3c2CC[C@H]3Oc2ccc(-c3cc(O)n[s+]3[O-])cc2)c(C)n1` (stereo partly drawn) [Example 106, 3-hydroxy-5-(4-(((R)-4-((6-methoxy-2-methylpyridin-3-yl)oxy)-2,3-dihydro-1H-inden-1-yl)oxy)phenyl)isothiazole 1-oxide], for which the half-maximal effective concentration (EC50) is below 300 nM.
Consider `[O-][s+]1nc(O)cc1-c1ccc(OC2CCc3cc(Br)ccc32)cc1` (stereo not drawn) [Example 1, 5-(4-((5-bromo-2,3-dihydro-1H-inden-1-yl)oxy)phenyl)-3-hydroxyisothiazole 1-oxide], for which the EC50 was below 300 nM.
As for `NC(=O)c1cccc(Oc2cccc3c2CC[C@H]3Oc2ccc(-c3cc(O)n[s+]3[O-])cc2)c1` (stereo partly drawn) [Example 128, 3-(((1R)-1-(4-(3-hydroxy-1-oxidoisothiazol-5-yl)phenoxy)-2,3-dihydro-1H-inden-4-yl)oxy)benzamide], the figure is below 300 nM; as for `COc1ccc(Oc2cccc3c2OCC3Oc2ccc(-c3cc(O)n[s+]3[O-])cc2)cn1` (stereo not drawn) [Example 140, 3-hydroxy-5-(4-((7-((6-methoxypyridin-3-yl)oxy)-2,3-dihydrobenzofuran-3-yl)oxy)phenyl)isothiazole 1-oxide], below 300 nM.
